Experimental data reported in US20170348375A1, “DISLODGEMENT AND RELEASE OF HSC FROM THE BONE MARROW STEM CELL NICHE USING ALPHA9 INTEGRIN ANTAGONISTS” (COMMONWEALTH SCIENTIFIC AND INDUSTRIAL RESEARCH ORGANISATION, priority 2014, published 2017).
Like-named read-outs stand apart in the source and are kept apart here.

Key:
α9β1 integrin = target: T1, α9β1 integrin (Homo sapiens, UniProt P05556+Q13797); experiment: On-rate and off-rate kinetics of R-BC154 binding to α9β1 LN18 cells; details: for kobs: 50 nM, 37° C., fast phase; for kon: (kobs − koff)/50 nM
T1 construct: expressed in transfected cells; host or cells: human glioblastoma LN18 (ATCC CRL-2610), retrovirally transduced; α4 silenced with pSM2c-shITGA4
T1 sequence (Q13797 30-1035): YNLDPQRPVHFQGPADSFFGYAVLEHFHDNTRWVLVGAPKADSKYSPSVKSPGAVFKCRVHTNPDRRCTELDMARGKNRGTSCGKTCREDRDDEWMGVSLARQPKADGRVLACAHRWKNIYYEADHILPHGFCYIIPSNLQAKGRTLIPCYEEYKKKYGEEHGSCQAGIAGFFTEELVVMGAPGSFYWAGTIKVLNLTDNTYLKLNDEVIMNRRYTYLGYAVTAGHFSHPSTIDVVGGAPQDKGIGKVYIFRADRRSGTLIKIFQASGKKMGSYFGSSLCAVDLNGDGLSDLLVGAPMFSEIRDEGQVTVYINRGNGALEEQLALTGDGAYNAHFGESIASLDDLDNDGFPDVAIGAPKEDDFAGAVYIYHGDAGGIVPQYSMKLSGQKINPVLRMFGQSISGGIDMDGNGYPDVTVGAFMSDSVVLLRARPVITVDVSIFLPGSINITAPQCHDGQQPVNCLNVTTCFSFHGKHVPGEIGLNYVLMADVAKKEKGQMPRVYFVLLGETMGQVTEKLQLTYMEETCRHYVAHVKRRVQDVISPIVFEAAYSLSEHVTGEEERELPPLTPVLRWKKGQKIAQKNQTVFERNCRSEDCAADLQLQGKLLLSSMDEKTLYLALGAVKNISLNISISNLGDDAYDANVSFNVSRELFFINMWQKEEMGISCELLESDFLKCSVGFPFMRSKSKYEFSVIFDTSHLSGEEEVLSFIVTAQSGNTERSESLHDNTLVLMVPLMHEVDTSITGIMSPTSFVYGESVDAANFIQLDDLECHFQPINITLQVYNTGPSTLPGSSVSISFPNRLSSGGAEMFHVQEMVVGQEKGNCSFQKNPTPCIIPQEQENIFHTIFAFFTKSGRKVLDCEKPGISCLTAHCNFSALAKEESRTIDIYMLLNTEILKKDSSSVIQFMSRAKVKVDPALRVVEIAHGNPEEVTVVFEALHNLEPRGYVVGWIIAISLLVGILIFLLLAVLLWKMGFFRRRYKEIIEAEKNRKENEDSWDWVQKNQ
T1 sequence (P05556 21-798): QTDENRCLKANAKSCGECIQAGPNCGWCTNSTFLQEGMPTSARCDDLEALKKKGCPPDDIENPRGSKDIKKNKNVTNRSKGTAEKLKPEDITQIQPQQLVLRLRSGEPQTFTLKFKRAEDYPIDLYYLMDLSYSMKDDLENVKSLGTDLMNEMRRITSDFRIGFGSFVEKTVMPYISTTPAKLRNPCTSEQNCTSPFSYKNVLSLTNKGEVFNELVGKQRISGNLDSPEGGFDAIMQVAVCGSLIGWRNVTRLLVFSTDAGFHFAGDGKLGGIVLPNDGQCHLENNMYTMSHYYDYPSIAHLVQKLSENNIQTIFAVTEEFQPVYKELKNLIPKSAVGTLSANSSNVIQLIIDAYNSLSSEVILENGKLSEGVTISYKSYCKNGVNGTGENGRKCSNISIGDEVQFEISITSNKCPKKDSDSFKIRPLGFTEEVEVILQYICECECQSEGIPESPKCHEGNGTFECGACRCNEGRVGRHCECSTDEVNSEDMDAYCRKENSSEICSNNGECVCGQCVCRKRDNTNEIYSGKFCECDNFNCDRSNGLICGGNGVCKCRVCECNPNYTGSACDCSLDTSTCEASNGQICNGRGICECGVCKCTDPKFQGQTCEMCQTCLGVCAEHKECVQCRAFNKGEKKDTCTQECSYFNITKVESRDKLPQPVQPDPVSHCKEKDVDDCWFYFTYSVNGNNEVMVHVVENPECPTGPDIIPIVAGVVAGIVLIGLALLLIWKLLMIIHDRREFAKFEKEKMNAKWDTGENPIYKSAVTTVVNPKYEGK
Procedure: (§1) Mean channel fluorescence was plotted against time and the data was fitted to either a one-phase or two-phase exponential decay function using GraphPad Prism 6. The off-rate, koff was extrapolated from the curves.
(§2) Eppendorf vials containing α4β1 or α9β1 LN18 cells (0.5×10^6 cells) in 50 μl TBS-2% FBS containing either 1 mM CaCl2—MgCl2 or 1 mM MnCl2 were pre-activated in a heating block for 20 min at 37° C. […] The cells were washed once TBS-2% FBS (with relevant cations), pelleted by centrifugation and resuspended (200 μl) in the relevant binding buffer for flow cytometric analysis. Mean channel fluorescence was plotted against time and the data was fitted to either a one-phase or two phase association function using GraphPad Prism 6. The observed on-rate, kobs was extrapolated from the curves and kon was calculated using […]

[1] = test system: central and endosteal BM LSK and LSKSLAM cells; experiment: In vitro R-BC154 binding to murine bone marrow cells; type: cell-based, mouse
Procedure: For lineage analysis, cells were stained separately for T-cells using anti-CD3, B-cells using anti-B220, macrophages using anti-Mac-1 and granulocytes using anti-Gr-1. Alternatively, lineage analysis was also performed using a cocktail containing anti-CD3/B220 (PB conjugated) and anti-B220/Gr1/Mac-1 (AF647 conjugated), whereby B220^+ cells were identified as +/+ cells, CD^3+ cells are +/− and Gr1/Mac-1^+ cells are −/+ populations. For analysis of human WBC from cord blood MNCs or BM and PB from humanised NSG mice, cells were immunolabelled with a lineage cocktail containing anti-huCD3/CD14/CD15 (all AF488 conjugated), anti-CD14/CD15/CD19/CD20 (all AF647 conjugated), anti-huCD45-PB, anti-muCD45-BV510 and anti-huCD34-PECy7. A full list of conjugated antibodies used is detailed in Table 1 and 2.
Populations of endosteal and central murine bone marrow cells were isolated as previously described in J. Grassinger, et al Cytokine, 2012, 58, 218-225 and D. N. Haylock et al Stem Cells, 2007, 25, 1062-1069. Briefly, one femur, tibia and iliac bone were excised and cleaned of muscle. After removing the epi- and metaphyseal regions, bones were flushed with PBS-2% FBS to obtain central bone marrow cells. Flushed long bones and epi- and metaphyseal fragments were pooled and crushed using a mortar and pestle. Bone fragments were digested with Collagenase I (3 mg/ml) and Dispase II (4 mg/ml) at 37° C. in an orbital shaker at 750 rpm. After 5 min, bone fragments were washed once with PBS and once with PBS 2% FBS to collect the endosteal bone marrow cells. Peripheral blood was collected by retro-orbital puncture and red blood cells were lysed using NH4Cl lysis buffer for 5 min at room temperature. Isolated cell populations were washed with PBS 2% FBS and then stained for flow cytometry as described in Antibody Cocktails above.
(§3) Cells were washed with cold PBS (2% F BS) and then immunolabelled as described in “Antibody Cocktails” prior to flow cytometric analysis.

[2] = test system: control LN18 cells (LN18 SiA4); experiment: Saturation binding to control LN18 cells (no integrins); parameters: species or system human; details: 1 mM Ca2+/Mg2+
Procedure: (§4) Stable LN18 cells ((ATCC number: CRL-2610) over-expressing integrin α4β1 (LN18 α4β1) or α9β1 (LN18 α9β1)) were generated by retroviral transduction using the pMSCV-hITGA4-IRES-hITGB1 and pMSCV-hITGA9-IRES-hITGB1 vectors as previously described in J Grassinger, et al Blood, 2009, 114, 49-59 and were maintained in DMEM supplemented with 2 mM […] in 10% FBS. Transduced cells were selected by two rounds of FACS using 2.5 μg ml^−1 PE-Cy5-conjugated mouse-anti-human α4 antibody (BD Bioscience) or 20 μg ml^−1 of mouse-anti-human α9β1 antibody (Millipore) in PBS-2% FBS, followed by 0.5 μg ml^−1 of PE-conjugated goat-anti-mouse IgG (BD Bio-science). Silencing of α4 expression in LN18 and LN18 α9β1 cells was performed as described above using pSM2c-shITGA4 (Open Biosystems). α4-silenced LN18 cells (control cell line; LN18 SiA4) and LN18 α9β1 (LN18 α9β1SiA4) were negatively selected for α4 expression using FACS.
(§5) The cells were incubated at 37° C. for 60 min, washed once with TBS-2% FBS, dry pelleted and resuspended in the relevant binding buffer for flow cytometric analysis. Mean channel fluorescence was plotted against concentration and fitted to a one-site saturation ligand binding curve using GraphPad Prism 6. The dissociation constant, Kd was determined from the curves.

α4β1 integrin = target: T2, α4β1 integrin (Homo sapiens, UniProt P05556+P13612); experiment: On-rate and off-rate kinetics of R-BC154 binding to α4β1 LN18 cells; details: for kobs / kon / koff: α4β1 cells; for kobs: 50 nM, 37° C., fast phase; for kon: (kobs − koff)/50 nM
T2 construct: expressed in transfected cells; host or cells: human glioblastoma LN18 (ATCC CRL-2610), retrovirally transduced
T2 sequence (P13612 34-1032): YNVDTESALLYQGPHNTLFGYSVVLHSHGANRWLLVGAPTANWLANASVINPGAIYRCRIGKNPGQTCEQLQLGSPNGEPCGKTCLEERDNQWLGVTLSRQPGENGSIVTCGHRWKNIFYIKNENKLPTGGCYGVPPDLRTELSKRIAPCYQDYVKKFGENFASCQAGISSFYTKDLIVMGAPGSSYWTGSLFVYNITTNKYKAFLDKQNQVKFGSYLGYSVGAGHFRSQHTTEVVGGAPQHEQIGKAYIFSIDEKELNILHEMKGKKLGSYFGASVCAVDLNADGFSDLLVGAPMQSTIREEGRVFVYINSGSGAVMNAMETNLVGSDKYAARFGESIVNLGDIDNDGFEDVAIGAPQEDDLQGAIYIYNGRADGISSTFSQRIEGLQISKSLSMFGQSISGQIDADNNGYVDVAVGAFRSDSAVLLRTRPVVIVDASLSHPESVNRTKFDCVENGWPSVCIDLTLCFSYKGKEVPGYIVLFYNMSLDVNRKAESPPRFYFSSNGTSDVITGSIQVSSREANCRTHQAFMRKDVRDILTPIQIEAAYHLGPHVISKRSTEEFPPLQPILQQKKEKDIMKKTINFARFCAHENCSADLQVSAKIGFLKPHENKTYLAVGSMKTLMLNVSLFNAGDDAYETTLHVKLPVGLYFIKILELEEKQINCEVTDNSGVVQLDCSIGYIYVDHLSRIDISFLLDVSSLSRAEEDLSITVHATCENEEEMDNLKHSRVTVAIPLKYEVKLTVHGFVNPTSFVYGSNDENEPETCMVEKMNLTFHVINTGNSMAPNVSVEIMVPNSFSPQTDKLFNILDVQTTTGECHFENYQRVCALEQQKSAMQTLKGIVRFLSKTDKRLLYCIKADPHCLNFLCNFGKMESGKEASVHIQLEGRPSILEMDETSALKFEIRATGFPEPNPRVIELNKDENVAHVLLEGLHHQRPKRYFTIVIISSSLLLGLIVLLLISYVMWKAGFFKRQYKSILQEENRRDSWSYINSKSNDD
T2 sequence (P05556 21-798): as the sequence (P05556 21-798) above
Procedure: as §1, §2

human integrin α4β1 = target: T3, human integrin α4β1 (Homo sapiens, UniProt P05556+P13612); experiment: Saturation binding to α4β1 over-expressing LN18 cells (flow cytometry); details: for Kd: α4β1 LN18 cells, read-out: Kd (dissociation constant), α4β1
T3 construct: expressed in transfected cells; host or cells: human glioblastoma LN18 (ATCC CRL-2610), retrovirally transduced
T3 sequence (P13612 34-1032): as the sequence (P13612 34-1032) above
T3 sequence (P05556 21-798): as the sequence (P05556 21-798) above
Procedure: as §4, §5

[3] = test system: human cord blood mononuclear cells (MNC); experiment: In vitro R-BC154 binding to human cord blood mononuclear cells; type: cell-based
Procedure: Mononuclear cells (MNC) were isolated from cord blood as previously described in Nilsson, S. K. et al Blood 106, 1232-1239, (2005) and Grassinger, J. et al. Blood 114, 49-59, (2009). MNCs were incubated with a lineage antibody cocktail containing mouse anti-human CD3, CD11b, CD14, CD16, CD20, CD24, and CD235a (BD) and then treated with two rounds of Dynal sheep anti-mouse IgG beads (Invitrogen, Carlsbad, Calif.) at a ratio of 2 beads per cell for 5 min and then 10 min at 4° C. with constant rotation. Enriched MNC were stained with CD34-fluorescein isothiocyanate (FITC) CD34^+ cells purified by FACS.
as §3

In the case of `CCN(CC)c1ccc2c(-c3ccc(S(=O)(=O)NCc4cn(C5CC(C(=O)NC(Cc6ccc(OC(=O)N7CCCC7)cc6)C(=O)O)N(S(=O)(=O)c6ccccc6)C5)nn4)cc3S(=O)(=O)[O-])c3ccc(=[N+](CC)CC)cc-3oc2c1` (centres unmarked) [R-BC154], the “off-rates for α9β1 compared to α4β1” value (α9β1 integrin; Example 2, FIG. 5c) is reported as “significantly reduced off-rates”, the “R-BC154 still bound after 60 min” value (α9β1 integrin; α9β1, Mn2+, dissociation experiment) is reported as “greater than 60%” and the koff (α9β1 integrin; α9β1 cells, 1 mM Ca2+/Mg2+) is reported as 0.0009 s⁻¹. For the same molecule, the kobs (α9β1 integrin; α9β1 cells, 1 mM Ca2+/Mg2+) was 3.117 min⁻¹, the kon (α9β1 integrin; α9β1 cells, 1 mM Ca2+/Mg2+) was 1.02e+06 M⁻¹ s⁻¹ and the kobs (α9β1 integrin; α9β1 cells, 1 mM Mn2+) was 2.035 min⁻¹. The kon (α9β1 integrin; α9β1 cells, 1 mM Mn2+) was about 670000 M⁻¹ s⁻¹, the “binding to central versus endosteal LSK and LSKSLAM” value ([1]; 1 mM Ca2+/Mg2+) was “greater binding to central LSK and LSKSLAM” and the “binding to HSC and progenitors on co-treatment with EDTA” value ([1]; 10 mM EDTA (deactivating)) was “completely abolished activity”. For the same molecule, the “binding to α4−/−/α9−/− LSK and LSKSLAM cells” value ([1]; BM cells of α4flox/flox α9flox/flox vav-cre mice) was “essentially absent”, the “binding to lineage committed lymphoid and myeloid progeny relative to LSKSLAM and LSK” value ([1]; exogenous activation, central and endosteal BM) was “significantly lower” and the “binding to LSK cells in the absence of activating cations and EDTA” value ([1]; no cations, no EDTA) was “binding to endosteal LSK cells was still evident but not to central LSK”. The “binding to control cell line lacking integrin expression” value [2] was “Virtually no binding”, the “R-BC154 still bound after 60 min” value (α4β1 integrin; α4β1, Mn2+, dissociation experiment) was “greater than 60%” and the kobs (α4β1 integrin; 1 mM Ca2+/Mg2+) was 5.426 min⁻¹. The kon (α4β1 integrin; 1 mM Ca2+/Mg2+) was 1.57e+06 M⁻¹ s⁻¹, the koff (α4β1 integrin; 1 mM Ca2+/Mg2+, fast phase of two-phase dissociation curve) was 0.012 s⁻¹ and the koff (α4β1 integrin; 1 mM Mn2+) was 0.000233 s⁻¹. For the same molecule, the kobs (α4β1 integrin; 1 mM Mn2+) was 1.891 min⁻¹, the kon (α4β1 integrin; 1 mM Mn2+) was 633000 M⁻¹ s⁻¹ and the Kd (human integrin α4β1; 1 mM Ca2+/Mg2+) was 38 nM. For the same molecule, the “increase in binding affinity towards α4β1 under Mn2+ activation compared to Ca2+/Mg2+” value (human integrin α4β1; 1 mM Mn2+ vs Ca2+/Mg2+) was 3.1 fold, the Kd (human integrin α4β1; 1 mM Mn2+) was 12.4 nM and the “reduction in binding affinity to α4β1 compared to compound 22” value (human integrin α4β1; Ca2+/Mg2+ conditions) was 1.9 fold. The “binding to human cord blood MNC” value ([3]; 1 mM Ca2+/Mg2+ vs no cations) was “Divalent cation and dose dependent binding” and the “binding to CD34+CD38− cells versus other MNC populations” value ([3]; activating conditions) was “greater binding was observed on stem cell enriched CD34^+CD38^− cells compared to lineage-committed CD34^− cells”.
